In US10065990B2, “Cyclic peptide compound, and preparation method, pharmaceutical composition and use thereof” (HANGZHOU GUANYU BIO-MEDICAL CO., LTD, priority 2013, dated 2018):
Like-named read-outs stand apart in the source and are kept apart here.

Columns and labels:
[1] = tested on: lncap (prostate cancer cells); assay: MTT cancer cell growth inhibition; format: cell-based; details: MTT, 72 hours incubation, read-out: GI50 lnca
Source text: (§1) MTT assay principle is yellow MTT can penetrate membrane into the cell, succinic dehydrogenase of the mitochondria in living cells can make exogenous MTT reduction of insoluble in water of blue-violet acicular formazan for crystallization and deposition in the cell, crystallization can be dissolved dimethyl sulfoxide (DMSO) solution, detected its absorbance at 490 nm/570 nm wavelength by enzyme-linked immunosorbent assay, which can reflect the number of cells.
(§2) Using DMEM+10% FBS culture medium or using 1640+10% FBS culture, respectively.
(§3) a) Cells were seeded in 96-well plates with the inoculation of 1500/well, 190 μl/hole, 37° C., 5% of CO2 incubator overnight;
(§4) b) The next day each well was added 10 μl of different drugs. The final concentration of drug was 10^−5˜10^−10M, three parallel holes; 37° C., 5% CO2 culture incubator for 72 hours incubation;
(§5) c) Per well was added 20 μl 5 mg/ml of MTT, 37° C., 5% CO2 culture incubator for 4 hours incubation;
(§6) d) The supernatant was discarded. Each well was added 100 μl of DMSO and oscillation;
(§7) e) 570 nm readings. Calculate cell viability. GI50 calculation based on the results.

[2] = tested on: Huh-7 (human hepatoma cells); assay: MTT cancer cell growth inhibition; format: cell-based; details: MTT, 72 hours incubation, Huh-7 cells, read-out: GI50 Huh-7
Source text: as §1, §2, §3, §4, §5, §6, §7

[3] = tested on: SGC-7901 (human gastric cancer cells); assay: MTT cancer cell growth inhibition; format: cell-based; details: MTT, 72 hours incubation, SGC-7901 cells, read-out: GI50 SGC-7901
Source text: as §1, §2, §3, §4, §5, §6, §7

[4] = tested on: MOLT-4 (human acute lymphoblastic leukemia cells); assay: MTT cancer cell growth inhibition; format: cell-based; details: MTT, 72 hours incubation, read-out: GI50 Mol
Source text: as §1, §2, §3, §4, §5, §6, §7

[5] = tested on: H1975 (non-small cell lung adenocarcinoma); assay: MTT cancer cell growth inhibition; format: cell-based; details: MTT, 72 hours incubation, H1975 cells, read-out: GI50 H1975
Source text: as §1, §2, §3, §4, §5, §6, §7

[6] = tested on: KBM-5 (human chronic myelogenous leukemia); assay: MTT cancer cell growth inhibition; format: cell-based; details: MTT, 72 hours incubation, KBM-5 cells, read-out: GI50 KBM-5
Source text: as §1, §2, §3, §4, §5, §6, §7

[7] = tested on: BGC-823 (human gastric cancer cells); assay: MTT cancer cell growth inhibition; format: cell-based; details: MTT, 72 hours incubation, read-out: GI50 BG
Source text: as §1, §2, §3, §4, §5, §6, §7

[8] = tested on: HCC827 (human non-small cell lung cancer cells); assay: MTT cancer cell growth inhibition; format: cell-based; details: MTT, 72 hours incubation, HCC827 cells, read-out: GI50 HCC827
Source text: as §1, §2, §3, §4, §5, §6, §7

[9] = tested on: MDA-MB-231 (breast cancer cells); assay: MTT cancer cell growth inhibition; format: cell-based
Source text: as §1, §2, §3, §4, §5, §6, §7

[10] = tested on: HT1080 (human fibrosarcoma cells); assay: MTT cancer cell growth inhibition; format: cell-based; details: MTT, 72 hours incubation, read-out: GI50 HT1
Source text: as §1, §2, §3, §4, §5, §6, §7

[11] = tested on: K562 (human leukemia cells); assay: MTT cancer cell growth inhibition; format: cell-based; details: MTT, 72 hours incubation, K562 cells, read-out: GI50 K562
Source text: as §1, §2, §3, §4, §5, §6, §7

[12] = tested on: A549 (human lung cancer cells); assay: MTT cancer cell growth inhibition; format: cell-based; details: MTT, 72 hours incubation, read-out: GI50 A54
Source text: as §1, §2, §3, §4, §5, §6, §7

[13] = tested on: PANC-1 (Pac-1, human pancreatic cancer cells); assay: MTT cancer cell growth inhibition; format: cell-based; details: MTT, 72 hours incubation, read-out: GI50 PAN
Source text: as §1, §2, §3, §4, §5, §6, §7

[14] = tested on: DU145 (human prostate cancer cells); assay: MTT cancer cell growth inhibition; format: cell-based; details: MTT, 72 hours incubation, read-out: GI50 Du1
Source text: as §1, §2, §3, §4, §5, §6, §7

[15] = tested on: Bel-7402 (human hepatoma cells); assay: MTT cancer cell growth inhibition; format: cell-based; details: MTT, 72 hours incubation, Bel-7402 cells, read-out: GI50 Bel-7402
Source text: as §1, §2, §3, §4, §5, §6, §7

[16] = tested on: KBM5-T315I (human chronic myelogenous leukemia); assay: MTT cancer cell growth inhibition; format: cell-based; details: MTT, 72 hours incubation, KBM5-T315I cells, read-out: GI50 KBM5-T315I
Source text: as §1, §2, §3, §4, §5, §6, §7

[17] = tested on: U937 (human leukemia cells); assay: MTT cancer cell growth inhibition; format: cell-based; details: MTT, 72 hours incubation, read-out: GI50 U93
Source text: as §1, §2, §3, §4, §5, §6, §7

[18] = tested on: Hela (human cervical cancer cells); assay: MTT cancer cell growth inhibition; format: cell-based; details: MTT, 72 hours incubation, read-out: GI50 Hela
Source text: as §1, §2, §3, §4, §5, §6, §7

[19] = tested on: MCF-7 (human breast cancer cells); assay: MTT cancer cell growth inhibition; format: cell-based; details: 72 hours incubation, read-out: GI50 MCF
Source text: as §1, §2, §3, §4, §5, §6, §7

HDAC7 = molecular target: T1, HDAC7 (Homo sapiens, UniProt Q8WUI4); assay: HDAC biochemical activity measurement (fluorescent substrate deacetylation);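 note: fluorogenic deacetylation assay using acetyl-lysine substrate at 20 µM, enzyme and compound incubated 30 min at 37 °C, then developer added, fluorescence read at 360/460 nm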; details: HDAC7; 37° C. 30 minutes
T1 sequence (Q8WUI4 1-952): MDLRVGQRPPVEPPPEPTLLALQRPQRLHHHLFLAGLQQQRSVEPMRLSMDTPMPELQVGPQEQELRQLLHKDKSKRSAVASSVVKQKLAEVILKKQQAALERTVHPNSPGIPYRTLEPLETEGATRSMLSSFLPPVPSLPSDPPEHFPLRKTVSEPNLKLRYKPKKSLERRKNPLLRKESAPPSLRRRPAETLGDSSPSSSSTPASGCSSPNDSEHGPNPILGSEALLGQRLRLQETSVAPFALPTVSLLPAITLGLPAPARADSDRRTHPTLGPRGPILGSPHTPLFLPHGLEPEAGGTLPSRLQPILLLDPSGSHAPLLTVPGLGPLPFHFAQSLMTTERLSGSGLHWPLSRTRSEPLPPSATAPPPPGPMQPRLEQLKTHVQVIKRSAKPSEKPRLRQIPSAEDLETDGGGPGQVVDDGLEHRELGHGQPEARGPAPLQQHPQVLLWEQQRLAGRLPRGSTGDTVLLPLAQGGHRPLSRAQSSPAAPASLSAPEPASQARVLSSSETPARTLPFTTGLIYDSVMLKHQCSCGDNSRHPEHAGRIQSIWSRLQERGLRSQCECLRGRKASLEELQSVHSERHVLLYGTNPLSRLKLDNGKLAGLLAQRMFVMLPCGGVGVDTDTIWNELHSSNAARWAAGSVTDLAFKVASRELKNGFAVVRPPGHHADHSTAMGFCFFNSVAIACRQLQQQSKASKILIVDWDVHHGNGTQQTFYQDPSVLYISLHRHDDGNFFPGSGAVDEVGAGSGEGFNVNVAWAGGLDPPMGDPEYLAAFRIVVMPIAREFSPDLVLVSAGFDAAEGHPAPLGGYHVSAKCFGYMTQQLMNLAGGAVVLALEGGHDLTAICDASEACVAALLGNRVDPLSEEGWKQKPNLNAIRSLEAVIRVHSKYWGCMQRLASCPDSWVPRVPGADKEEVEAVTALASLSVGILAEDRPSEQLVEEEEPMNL

[20] = tested on: N-87 (human gastric cancer cells); assay: MTT cancer cell growth inhibition; format: cell-based; details: MTT, 72 hours incubation, N-87 cells, read-out: GI50 N-87
Source text: as §1, §2, §3, §4, §5, §6, §7

[21] = Homo sapiens, MDA-MB-231, 72 h, read-out: GI50 MDA-MB-231, MTT, 72 hours incubation, MDA-MB-231 cells

Row | Structure (SMILES) | GI50 [1] [µM] | GI50 ([2]; Homo sapiens, Huh-7, 72 h) [µM] | GI50 ([3]; Homo sapiens, SGC-7901, 72 h) [µM] | GI50 [4] [µM] | GI50 ([5]; Homo sapiens, NCI-H1975, 72 h) [µM] | GI50 ([6]; Homo sapiens, KBM5, 72 h) [µM] | GI50 [7] [µM] | GI50 ([8]; Homo sapiens, HCC827, 72 h) [µM] | GI50 [9, 21] [µM] | GI50 [10] [µM] | GI50 ([11]; Homo sapiens, K562, 72 h) [µM] | GI50 [12] [µM] | GI50 [13] [µM] | GI50 [14] [µM] | GI50 ([15]; Homo sapiens, Bel-7402, 72 h) [µM] | GI50 ([16]; Homo sapiens, 72 h) [µM] | GI50 [17] [µM] | GI50 [18] [µM] | GI50 [19] [µM] | IC50 HDAC7 (HDAC7) | also measured
1 | C/C=C1\NC(=O)c2nc(ccc2F)CNC(=O)C[C@@H](/C=C/CCSC(C)=O)OC(=O)[C@H](C(C)C)NC1=O [Compound 93] | 0.03 | 0.038 | 0.068 | 0.03 | 0.027 | 0.053 | 0.02 | 0.034 | 0.038 | 0.03 | 0.037 | 0.06 | 0.03 | 0.03 | 0.034 | 0.034 | 0.02 | 0.05 | 0.03 | no activity | –
2 | C/C=C1\NC(=O)c2nc(ccc2F)CNC(=O)C[C@@H](/C=C/CCSC(C)=O)OC(=O)[C@H](CC)NC1=O [Example 57] | – | – | – | – | – | – | – | – | – | – | – | – | – | – | – | – | – | – | – | – | GI50 [2]: 0.028 µM; GI50 [3]: 0.092 µM; GI50 [5]: 0.055 µM; GI50 [6]: 0.074 µM; GI50 [20]: 0.053 µM; GI50 [8]: 0.073 µM; GI50 ([9]; read-out: GI50 MDA-MB-231, MTT, 72 hours incubation, MDA-MB-231 cells): 0.028 µM; GI50 [11]: 0.035 µM; GI50 [15]: 0.073 µM; GI50 [16]: 0.054 µM
3 | C/C=C1\NC(=O)c2ccc(F)c(n2)CNC(=O)C[C@@H](/C=C/CCSC(C)=O)OC(=O)[C@H](C(C)C)NC1=O [Compound 95] | – | 0.022 | 0.042 | – | 0.035 | 0.076 | 0.02 | 0.083 | 0.022 | – | 0.026 | – | – | – | 0.083 | 0.038 | – | – | – | no activity | GI50 ([1]; Homo sapiens, LNCaP, 72 h): 0.02 µM; GI50 ([4]; Homo sapiens, MOLT-4, 72 h): 0.02 µM; GI50 ([10]; Homo sapiens, HT-1080, 72 h): 0.08 µM; GI50 ([12]; Homo sapiens, A549, 72 h): 0.04 µM; GI50 ([13]; Homo sapiens, PANC-1, 72 h): 0.08 µM; GI50 ([14]; Homo sapiens, DU-145, 72 h): 0.02 µM; GI50 ([17]; Homo sapiens, U-937, 72 h): 0.03 µM; GI50 ([18]; Homo sapiens, HeLa, 72 h): 0.07 µM; GI50 ([19]; Homo sapiens, MCF7, 72 h): 0.03 µM
4 | C/C=C1\NC(=O)c2ccc(F)c(n2)CNC(=O)C[C@@H](/C=C/CCSC(C)=O)OC(=O)[C@H](C(C)C)NC1=O (single isomer, unassigned) [Example 50] | 0.02 | – | – | 0.02 | – | – | 0.06 | – | – | 0.08 | – | 0.03 | 0.08 | 0.04 | – | – | 0.03 | 0.07 | 0.06 | no activity | –
5 | C/C=C1\NC(=O)c2cc(F)cc(n2)CNC(=O)C[C@@H](/C=C/CCS)OC(=O)[C@H](CC)NC1=O [Compound 110] | – | 0.048 | 0.057 | – | 0.059 | 0.041 | – | 0.062 | 0.013 | – | 0.017 | – | – | – | 0.062 | 0.029 | – | – | – | no activity | GI50 ([1]; Homo sapiens, LNCaP, 72 h): 0.03 µM; GI50 ([4]; Homo sapiens, MOLT-4, 72 h): 0.03 µM; GI50 ([20]; Homo sapiens, 72 h): 0.035 µM; GI50 ([7]; Homo sapiens, BGC-823, 72 h): 0.03 µM; GI50 ([10]; Homo sapiens, HT-1080, 72 h): 0.07 µM; GI50 ([12]; Homo sapiens, A549, 72 h): 0.06 µM; GI50 ([14]; Homo sapiens, DU-145, 72 h): 0.05 µM; GI50 ([17]; Homo sapiens, U-937, 72 h): 0.06 µM; GI50 ([18]; Homo sapiens, HeLa, 72 h): 0.06 µM; GI50 ([19]; Homo sapiens, MCF7, 72 h): 0.03 µM
